Broadly, the IC50 is the concentration that inhibits the measured activity by half.

Structures are written as SMILES.

In ChEMBL document CHEMBL1125053, “Dihydropyrimidine calcium channel blockers. 2. 3-substituted-4-aryl-1,4-dihydro-6-methyl-5-pyrimidinecarboxylic acid esters as potent mimics of dihydropyridines” (J Med Chem, 1990) one finds IC50 data, which are given here for 9 molecules.

In this experiment the target is Voltage-gated L-type calcium channel (Homo sapiens, UniProt Q13936+Q13698+Q01668+O60840). Description: In vitro vasorelaxant activity (calcium channel blocking activity) was determined with potassium-depolarized rabbit thoracic aorta. It counts as functional, tissue-based.
For the molecule `CCOC(=O)C1=C(C)NC(OCC)=C(C(=O)OCC)C1c1cccc([N+](=O)[O-])c1` (centres undefined), the IC50 is listed as 26 nM. For `CCOC(=O)C1=C(C)NC(SC)=NC1c1cccc([N+](=O)[O-])c1` (centres undefined) the value was 130 nM; for `CCOC(=O)N1C(=S)N=C(C)/C(=C(/O)OCC)C1c1cccc([N+](=O)[O-])c1` (centres undefined), 17 nM; for `CCOC(=O)C1=C(C)N=C(OC)NC1c1cccc([N+](=O)[O-])c1` (centres undefined), 710 nM. For `CCCN1C(S)=NC(C)=C(C(=O)OCC)C1c1cccc([N+](=O)[O-])c1` (centres undefined) the value was 50 nM; for `CCO/C(O)=C1\C(C)=NC(=S)N(C(=O)N(C)C)C1c1cccc([N+](=O)[O-])c1` (centres undefined), 270 nM; for `CCOC(=O)C1=C(C)NC(SCC)=C(C(=O)OCC)C1c1cccc([N+](=O)[O-])c1` (centres undefined), 4 nM. As for `CCOC(=O)N1C(=S)N=C(C)/C(=C(/O)OCC)C1c1ccccc1C(F)(F)F` (centres undefined), the IC50 is recorded as 26 nM. Regarding `CCOC(=O)N1C(=S)N=C(C)/C(=C(/O)OC(C)C)[C@H]1c1cccc([N+](=O)[O-])c1`, the IC50 worked out at 2 nM.
